Measured values reported in patent US10245261B2, “Substituted indol-5-ol derivatives and their therapeutic applications” (NantBioScience, Inc., priority 2013, dated 2019).

Experiments:
Abl(h) = Abl(h) (Homo sapiens, UniProt P00519); assay: KinaseProfiler kinase assay; type: biochemical
[1] = system: human MIAPaCa-2 pancreatic carcinoma xenograft; assay: Pancreatic carcinoma xenograft in athymic nude mice; type: in vivo, mouse; conditions: MIAPaCa-2 xenograft, nude mice, single agent
Procedure: The objective of the third study was to evaluate antitumor activities of novel multiple-kinase inhibitor NTW-3475 in human MIAPaCa-2 pancreatic carcinoma xenograft in athymic nude-Faxn1 mice.
Four animals were randomly assigned to study groups. Each animal was weighed, and then injected subcutaneously in the left and right flank area with 0.1 ml of 5.0×10^7 MIAPaCa-2 cells per mL.
Each test or control animal was on a 5-day on, two-day off for two cycles treatment schedule with negative control vehicle, positive control Abraxane at 20 mg/kg or 25, 50 mg/kg of NTW-3475. Tumor growth was measured with a digital hand held caliper twice weekly (once tumor emerges) prior to the first dosing and then two to three times weekly until euthanized.
The objective of the third study was to evaluate antitumor activities of novel multiple-kinase inhibitor Compound 10, 11, 12, 53, 68, 82, 83, 88, and 90 in human MIAPaCa-2 pancreatic carcinoma xenograft in athymic nude-Faxn1 mice.
Each test or control animal was on a 5-day on, two-day off for three cycles treatment schedule with negative control vehicle or 40 mg/kg of Compound 10, 11, 12, 53, 68, 82, 83, 88 and 90. Tumor growth was measured with a digital hand held caliper twice weekly (once tumor emerges) prior to the first dosing and then two to three times weekly until euthanized.

K562 = assay: CellTiterBlue cell growth inhibition; type: cell-based; conditions: Homo sapiens; K562, 72 hours
Procedure: (§1) This example illustrated the proliferating cell growth inhibition of selected compounds from this invention. To do this, the cells were seeded into fresh Iscove's growth medium at a density of 0.4e6 cells/ml and grown in log phase for 24 hr. Cells were then resuspended in their fresh respective growth media at 0.1e^6 cells/ml and plated into 384 well black, clear-bottom microplates at 36 ul/well. Test compounds and controls were initially dissolved in DMSO at the desired concentration, then serially diluted to the assay buffer. These solutions were added and cells were incubated for 72 hours at 37° C. CellTiterBlue (Promega cat# G7572) was added on the Beckman FX. Plates were returned to the 37° C. CO2 incubator for 4 hr and then fluorescence was determined on the Victor plate reader. Data were processed using Microsoft Excel, and GI50 values were generated using Prism (GraphPad Software, San Diego, Calif.).

RS4.11 = assay: CellTiterBlue cell growth inhibition; type: cell-based; conditions: Homo sapiens; RS4.11, 72 hours
Procedure: as §1

MV4.11 = assay: CellTiterBlue cell growth inhibition; type: cell-based; conditions: Homo sapiens; MV4.11, 72 hours
Procedure: as §1

KU812 = assay: CellTiterBlue cell growth inhibition; type: cell-based; conditions: Homo sapiens; KU812, 72 hours
Procedure: as §1

KDR(h) = KDR(h) (Homo sapiens, UniProt P35968); assay: KinaseProfiler kinase assay; type: biochemical
KDR(h), sequence (P35968 20-1356): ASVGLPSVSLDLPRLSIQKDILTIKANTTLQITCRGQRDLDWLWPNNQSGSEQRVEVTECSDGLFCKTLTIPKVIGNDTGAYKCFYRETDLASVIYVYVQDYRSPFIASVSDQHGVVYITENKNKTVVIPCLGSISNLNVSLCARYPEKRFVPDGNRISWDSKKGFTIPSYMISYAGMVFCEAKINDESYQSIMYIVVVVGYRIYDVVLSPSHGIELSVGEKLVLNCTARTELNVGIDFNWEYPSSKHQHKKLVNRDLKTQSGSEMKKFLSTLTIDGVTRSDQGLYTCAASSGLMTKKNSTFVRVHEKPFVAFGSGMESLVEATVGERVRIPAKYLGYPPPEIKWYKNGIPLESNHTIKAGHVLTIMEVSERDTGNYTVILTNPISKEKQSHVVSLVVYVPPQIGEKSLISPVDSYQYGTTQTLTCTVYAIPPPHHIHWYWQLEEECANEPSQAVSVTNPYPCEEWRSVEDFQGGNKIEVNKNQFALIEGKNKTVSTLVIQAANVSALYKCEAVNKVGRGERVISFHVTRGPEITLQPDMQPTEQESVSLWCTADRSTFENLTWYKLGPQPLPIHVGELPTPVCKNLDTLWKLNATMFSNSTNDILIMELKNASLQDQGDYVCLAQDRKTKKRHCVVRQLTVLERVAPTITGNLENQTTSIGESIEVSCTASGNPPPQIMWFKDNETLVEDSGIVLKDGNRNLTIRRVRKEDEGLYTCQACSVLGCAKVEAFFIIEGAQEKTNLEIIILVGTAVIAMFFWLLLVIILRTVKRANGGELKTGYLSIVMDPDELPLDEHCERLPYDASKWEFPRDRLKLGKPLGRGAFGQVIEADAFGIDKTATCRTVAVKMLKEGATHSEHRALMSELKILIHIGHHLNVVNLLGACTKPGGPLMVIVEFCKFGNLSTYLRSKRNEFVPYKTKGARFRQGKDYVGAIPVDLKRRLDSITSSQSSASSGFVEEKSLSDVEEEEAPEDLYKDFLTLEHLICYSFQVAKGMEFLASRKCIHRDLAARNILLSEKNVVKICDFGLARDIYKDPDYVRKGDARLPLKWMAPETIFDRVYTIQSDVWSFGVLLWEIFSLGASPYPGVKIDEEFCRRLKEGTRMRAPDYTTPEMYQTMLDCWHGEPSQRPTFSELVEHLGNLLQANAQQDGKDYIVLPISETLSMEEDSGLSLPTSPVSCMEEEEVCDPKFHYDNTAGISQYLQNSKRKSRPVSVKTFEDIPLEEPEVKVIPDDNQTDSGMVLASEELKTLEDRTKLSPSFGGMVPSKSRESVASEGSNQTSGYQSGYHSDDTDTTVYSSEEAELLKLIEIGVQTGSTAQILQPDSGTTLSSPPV

Ret(h) = Ret(h) (Homo sapiens, UniProt P07949); assay: KinaseProfiler kinase assay; type: biochemical
Ret(h), sequence (P07949 29-1114): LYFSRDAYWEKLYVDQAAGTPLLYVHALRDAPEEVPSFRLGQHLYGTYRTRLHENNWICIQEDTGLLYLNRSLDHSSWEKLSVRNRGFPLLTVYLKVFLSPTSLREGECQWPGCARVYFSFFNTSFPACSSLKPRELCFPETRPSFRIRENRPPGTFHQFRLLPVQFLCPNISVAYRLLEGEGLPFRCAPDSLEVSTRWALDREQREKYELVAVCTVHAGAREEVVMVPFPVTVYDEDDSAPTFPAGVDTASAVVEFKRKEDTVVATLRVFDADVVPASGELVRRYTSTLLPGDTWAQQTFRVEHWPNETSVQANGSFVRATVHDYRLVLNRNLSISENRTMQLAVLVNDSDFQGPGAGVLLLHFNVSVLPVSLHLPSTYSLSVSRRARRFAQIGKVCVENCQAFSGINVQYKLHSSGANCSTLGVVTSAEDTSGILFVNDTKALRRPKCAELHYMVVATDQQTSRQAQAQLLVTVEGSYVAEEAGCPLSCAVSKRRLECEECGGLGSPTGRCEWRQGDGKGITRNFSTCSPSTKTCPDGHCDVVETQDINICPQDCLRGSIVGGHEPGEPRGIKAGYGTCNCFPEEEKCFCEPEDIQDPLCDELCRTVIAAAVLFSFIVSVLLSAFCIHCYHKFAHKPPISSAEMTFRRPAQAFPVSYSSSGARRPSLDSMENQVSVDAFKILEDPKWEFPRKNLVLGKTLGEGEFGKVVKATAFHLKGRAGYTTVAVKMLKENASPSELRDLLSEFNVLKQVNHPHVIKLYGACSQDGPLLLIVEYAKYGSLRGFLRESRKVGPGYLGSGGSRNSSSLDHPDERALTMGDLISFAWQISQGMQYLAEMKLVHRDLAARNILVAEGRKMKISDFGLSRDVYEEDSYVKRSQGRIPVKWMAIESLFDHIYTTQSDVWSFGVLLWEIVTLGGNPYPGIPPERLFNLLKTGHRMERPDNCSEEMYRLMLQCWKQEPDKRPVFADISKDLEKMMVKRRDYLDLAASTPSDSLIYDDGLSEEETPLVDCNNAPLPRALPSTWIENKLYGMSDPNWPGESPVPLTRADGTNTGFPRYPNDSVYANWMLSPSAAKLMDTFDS
How it was run: (§2)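 Steps: compound diluted from DMSO into MOPS/BSA assay buffer; MgATP mix with [γ-33P]ATP added to start; 40 min incubation at room temperature; phosphoric acid stop; filtermat spotting, washing in 50 mM phosphoric acid and methanol; scintillation counting.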

Aurora-A(h) = target: T1, Aurora-A(h) (Homo sapiens, UniProt O14965); assay: KinaseProfiler kinase assay; type: biochemical; conditions: read-out: % Inhibition @1 μM Auroro-A
T1 sequence (O14965 1-403): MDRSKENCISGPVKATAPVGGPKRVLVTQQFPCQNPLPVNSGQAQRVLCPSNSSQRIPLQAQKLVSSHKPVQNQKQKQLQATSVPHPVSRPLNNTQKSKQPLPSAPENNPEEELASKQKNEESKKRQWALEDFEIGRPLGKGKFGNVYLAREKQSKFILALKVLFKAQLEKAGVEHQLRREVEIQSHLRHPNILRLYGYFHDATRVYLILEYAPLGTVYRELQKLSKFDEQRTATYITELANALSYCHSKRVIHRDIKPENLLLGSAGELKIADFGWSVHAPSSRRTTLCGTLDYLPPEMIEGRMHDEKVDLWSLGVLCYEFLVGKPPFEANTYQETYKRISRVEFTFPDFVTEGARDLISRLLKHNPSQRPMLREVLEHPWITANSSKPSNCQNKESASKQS
How it was run: as §2

cSRC(h) = cSRC(h) (Homo sapiens, UniProt P12931); assay: KinaseProfiler kinase assay; type: biochemical
cSRC(h), sequence (P12931 whole entry): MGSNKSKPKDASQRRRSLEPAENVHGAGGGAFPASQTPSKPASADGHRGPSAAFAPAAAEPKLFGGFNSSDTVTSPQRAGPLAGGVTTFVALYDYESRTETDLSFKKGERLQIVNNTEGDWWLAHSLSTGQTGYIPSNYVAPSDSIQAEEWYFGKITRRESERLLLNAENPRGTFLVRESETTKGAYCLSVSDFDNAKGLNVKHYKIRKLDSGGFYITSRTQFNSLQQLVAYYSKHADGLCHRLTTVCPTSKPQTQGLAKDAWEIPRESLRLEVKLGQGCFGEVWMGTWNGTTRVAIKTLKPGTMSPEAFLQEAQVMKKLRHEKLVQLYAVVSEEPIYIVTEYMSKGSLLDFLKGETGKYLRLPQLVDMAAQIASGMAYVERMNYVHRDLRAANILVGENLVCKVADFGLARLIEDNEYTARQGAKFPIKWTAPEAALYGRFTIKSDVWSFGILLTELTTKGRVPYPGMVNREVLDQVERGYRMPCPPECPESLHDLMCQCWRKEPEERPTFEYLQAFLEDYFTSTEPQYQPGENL
How it was run: as §2

Flt3(h) = target: T2, Flt3(h) (Homo sapiens, UniProt P36888); assay: KinaseProfiler kinase assay; type: biochemical
T2 sequence (P36888 27-993): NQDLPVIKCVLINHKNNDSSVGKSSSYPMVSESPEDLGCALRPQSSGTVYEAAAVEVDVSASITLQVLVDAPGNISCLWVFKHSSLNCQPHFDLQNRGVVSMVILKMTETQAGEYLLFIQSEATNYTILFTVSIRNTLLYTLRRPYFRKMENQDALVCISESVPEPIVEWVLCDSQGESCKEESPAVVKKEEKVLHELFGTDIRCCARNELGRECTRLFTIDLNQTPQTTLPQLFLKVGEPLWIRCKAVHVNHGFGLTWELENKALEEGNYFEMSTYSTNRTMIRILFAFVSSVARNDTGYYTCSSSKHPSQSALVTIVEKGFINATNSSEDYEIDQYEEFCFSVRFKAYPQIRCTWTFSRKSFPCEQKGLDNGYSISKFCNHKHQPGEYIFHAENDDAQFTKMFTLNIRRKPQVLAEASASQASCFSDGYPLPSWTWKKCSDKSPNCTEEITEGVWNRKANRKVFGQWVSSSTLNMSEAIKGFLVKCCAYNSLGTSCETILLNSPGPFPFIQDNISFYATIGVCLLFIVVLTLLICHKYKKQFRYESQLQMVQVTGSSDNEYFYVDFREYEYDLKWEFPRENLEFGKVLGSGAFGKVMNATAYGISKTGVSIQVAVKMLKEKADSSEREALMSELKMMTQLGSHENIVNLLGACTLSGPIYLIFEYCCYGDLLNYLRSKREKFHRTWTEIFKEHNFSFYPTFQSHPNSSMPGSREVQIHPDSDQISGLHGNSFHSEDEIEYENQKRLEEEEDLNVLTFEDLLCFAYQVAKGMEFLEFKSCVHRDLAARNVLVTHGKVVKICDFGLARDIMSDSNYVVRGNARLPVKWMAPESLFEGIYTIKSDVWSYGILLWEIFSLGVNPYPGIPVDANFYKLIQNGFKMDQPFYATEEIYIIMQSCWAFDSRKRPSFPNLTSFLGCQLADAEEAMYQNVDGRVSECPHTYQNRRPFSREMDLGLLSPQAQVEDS
How it was run: as §2

TT = assay: CellTiterBlue cell growth inhibition; type: cell-based; conditions: Homo sapiens, 72 hours
Procedure: as §1

AN3.CA = assay: CellTiterBlue cell growth inhibition; type: cell-based; conditions: Homo sapiens, 72 hours
Procedure: as §1

Abl(h), sequence (P00519 whole entry): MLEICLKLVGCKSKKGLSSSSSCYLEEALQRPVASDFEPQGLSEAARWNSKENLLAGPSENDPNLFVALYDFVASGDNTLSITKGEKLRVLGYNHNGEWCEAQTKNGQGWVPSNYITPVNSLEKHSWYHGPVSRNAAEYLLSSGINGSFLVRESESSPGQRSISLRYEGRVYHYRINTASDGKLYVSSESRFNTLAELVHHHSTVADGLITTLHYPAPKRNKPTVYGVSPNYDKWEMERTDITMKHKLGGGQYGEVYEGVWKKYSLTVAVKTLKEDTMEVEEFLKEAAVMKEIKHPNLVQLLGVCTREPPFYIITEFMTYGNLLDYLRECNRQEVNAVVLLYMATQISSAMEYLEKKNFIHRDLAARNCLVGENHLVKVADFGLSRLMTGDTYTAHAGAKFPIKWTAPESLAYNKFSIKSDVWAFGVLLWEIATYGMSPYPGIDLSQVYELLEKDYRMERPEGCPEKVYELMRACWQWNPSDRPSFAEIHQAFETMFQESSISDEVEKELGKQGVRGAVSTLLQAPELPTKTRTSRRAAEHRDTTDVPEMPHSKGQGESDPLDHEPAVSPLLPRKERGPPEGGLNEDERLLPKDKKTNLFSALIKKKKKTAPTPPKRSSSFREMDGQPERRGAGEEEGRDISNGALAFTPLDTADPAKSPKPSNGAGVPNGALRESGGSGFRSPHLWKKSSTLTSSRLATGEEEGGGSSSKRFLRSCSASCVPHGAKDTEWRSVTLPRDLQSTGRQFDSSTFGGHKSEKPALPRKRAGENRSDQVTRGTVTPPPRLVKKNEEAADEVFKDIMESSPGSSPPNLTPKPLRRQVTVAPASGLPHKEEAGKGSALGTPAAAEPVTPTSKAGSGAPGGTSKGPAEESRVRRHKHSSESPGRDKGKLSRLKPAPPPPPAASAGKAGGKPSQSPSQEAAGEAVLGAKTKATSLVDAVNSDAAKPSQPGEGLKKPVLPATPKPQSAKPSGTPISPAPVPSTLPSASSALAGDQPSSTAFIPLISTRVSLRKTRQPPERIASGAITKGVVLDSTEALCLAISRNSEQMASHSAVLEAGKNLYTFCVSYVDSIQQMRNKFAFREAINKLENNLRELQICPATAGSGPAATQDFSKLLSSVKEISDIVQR

SMILES	inhibition at 1 µM (Abl(h)) [%]	anti-tumor effect [1]	GI50 (K562) [nM]	GI50 (RS4.11) [nM]	GI50 (MV4.11) [nM]	GI50 (KU812) [nM]	inhibition at 1 µM (KDR(h)) [%]	inhibition at 1 µM (Ret(h)) [%]	inhibition at 1 µM (Aurora-A(h)) [%]	inhibition at 1 µM (cSRC(h)) [%]	inhibition at 1 µM (Flt3(h)) [%]	GI50 (TT) [nM]	GI50 (AN3.CA) [nM]
Cc1cc2c(F)c(Oc3nc(Nc4cc(C5CC5)[nH]n4)cc(N4CCN(CCO)CC4)n3)cc(F)c2[nH]1 [Compound 83]	110	strong anti-tumor effect	0.55	3.3	0.4	0.67	96	101	100	99	99	–	–
C/C=C/c1cc(Nc2cc(N3CCNCC3)nc(Oc3cc(F)c4[nH]c(C)cc4c3F)n2)n[nH]1 [Compound 90]	112	strong anti-tumor effect	0.85	5.07	0.13	0.9	95	99	100	101	100	3.8	2
